Values quoted from earlier work, collected in US10918126B2, “Isotopically modified compounds and their use as food supplements” (Retrotope, Inc., priority 2006, dated 2021).
Read-outs that look alike come from different tables or passages of the source.

Legend:
[1] = biological target: liver alcohol dehydrogenase (ADH); details: ethanol oxidation by ADH to acetaldehyde

deuterated ethanol
mean value of D(V/K) (perfused rat liver): 2.89

(1-R)[I—^3H2]— ethanol
kinetic isotope effect T(V/K) ([1]; pH 6): 6.5 | kinetic isotope effect T(V/K) ([1]; pH 9): 2.5

(1-R)[1-^2H2]— ethanol
kinetic isotope effect D(V/K) ([1]; pH 6): 3 | kinetic isotope effect D(V/K) ([1]; pH 9): 1.5
